For the assay, the system named is E. multilocularis metacestodes. Put plainly: PGI assay: phosphoglucose isomerase release from damaged metacestodes. In kind it is cell-based, Echinococcus multilocularis. As to conditions: 10 μM, 5 days, single wells, relative to DB1127 (10 μM). The method, boiled down:
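E. multilocularis metacestode vesicles (strain H95, grown in BALB/c mice, 2–4 mm diameter) were exposed in vitro to compounds for 5 days. Damage was read as phosphoglucose isomerase released into the medium. Initial screening used 10 μM in single wells, with 0.1% DMSO as negative control. EC50 values were derived from this read-out.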
Take `COc1ccc(-c2nc3cc(Cc4ccc5[nH]c(-c6ccc(OC)cc6)nc5c4)ccc3[nH]2)cc1` [MMV007384]: the “PGI (% of DB1127 at 10 uM)” value was 61.95%.
In the case of `Br.CCN(CC)S(=O)(=O)c1ccc(-c2csc(Nc3ccc(C)c(C)c3)n2)cc1` [MMV009108], the “PGI (% of DB1127 at 10 uM)” value was 14.04%.
As for `COc1ccccc1CNC(=O)CCn1c(=O)[nH]c2ccsc2c1=O` [MMV019066], the “PGI (% of DB1127 at 10 uM)” value is -44.92%.
Take `COc1ccc(NC(=O)C2c3ccccc3C(=O)N(CC(C)C)C2c2cccs2)cc1` (stereo not drawn) [MMV000662]: the “PGI (% of DB1127 at 10 uM)” value is given as -25.19%.
In the case of `c1ccc2cc3c(Nc4ccc(N5CCOCC5)cc4)ccnc3cc2c1` [MMV006861] it was -26.86%.
As to `COc1cc(C(=O)Nc2ccc(-c3nc4ccccc4[nH]3)cc2)cc(OC)c1OC` [MMV665898], the “PGI (% of DB1127 at 10 uM)” value is reported as -11.03%.
For `COc1cc(C(=O)Nc2nc3c(cc4c5c(cccc53)CC4)s2)cc(OC)c1OC` [MMV396665], the “PGI (% of DB1127 at 10 uM)” value was -11.85%.
For `CCOC(=O)C1(Cc2ccccc2)CCN(Cc2cccc(OC)c2O)CC1` [MMV666109], the “PGI (% of DB1127 at 10 uM)” value is listed as -8.56%.
In the case of `CCOC(=O)c1cnc2c(C)cccc2c1Nc1ccc(C(C)=O)cc1` [MMV006250] it was -32.91%; in that of `CCOc1cccc(C(=O)Nc2ccc(-c3nc4ccccc4[nH]3)cc2)c1` [MMV019202], -27.17%.
`CCOC(=O)c1c(NC(=O)c2ccccc2)sc2c(O)c(CN(CC)CC)ccc12` [MMV665831]: the “PGI (% of DB1127 at 10 uM)” value is -16.80%.
In the case of `O=C(Nc1ccc(Cl)cc1)N1CCN(c2ccc3nncn3n2)CC1` [MMV665917] it was -87.17%; in that of `CCOc1ccc(C2N(C)c3ccccc3N2C)cc1` [MMV075490], 26.52%; in that of `CN1CCN(c2ccc(Nc3c4ccccc4nc4ccccc34)cc2)CC1` [MMV006172], 2.41%.
`CCOc1ccc(-c2nc(NC(=O)c3cccc(S(C)(=O)=O)c3)sc2C)cc1` [MMV665913]: the “PGI (% of DB1127 at 10 uM)” value is -25.30%.
In the case of `COc1ccccc1NC1=C(N2CCCCC2)C(=O)c2ccccc2C1=O` [MMV085203] it was 31.65%; in that of `CCCc1c(C)nc2ccccc2c1O` [MMV666081], -67.20%.
As for `COc1cc(CNCCc2ccc(Cl)cc2)cc(OC)c1O` [MMV128432], the “PGI (% of DB1127 at 10 uM)” value is on record as -10.12%.
Take `CCOc1cc2c(cc1OCC)C(c1cc(Cl)ccc1O)NCC2` (stereo not drawn) [MMV000478]: the “PGI (% of DB1127 at 10 uM)” value is 32.45%.
For `COCCNCC(O)Cn1c2ccc(Cl)cc2c2cc(Cl)ccc21` (stereo not drawn) [MMV019017], the “PGI (% of DB1127 at 10 uM)” value is 20.81%.
On to `COc1cc(SC)ccc1C(=O)N1CCCC(C)C1` (stereo not drawn) [MMV056726], for which the “PGI (% of DB1127 at 10 uM)” value is given as 16.15%.
Take `CCN(CC)CCNc1ncnc2c1[nH]c1ccc(Br)cc12` [MMV006545]: the “PGI (% of DB1127 at 10 uM)” value is on record as -33.20%.
On to `O=C1c2ccccc2C2=Nc3ccccc3SC(c3cccc(F)c3)C12` (stereo not drawn) [MMV006389], for which the “PGI (% of DB1127 at 10 uM)” value was -15.52%.
For `N=c1n(CCN2CCCCC2)c2ccccc2n1CC(=O)c1ccc(Cl)c(Cl)c1` [MMV396723], the “PGI (% of DB1127 at 10 uM)” value turned out to be 22.11%.
`CCc1ccc(Nc2cc(C)nc3nc(C)nn23)cc1` [MMV007374]: the “PGI (% of DB1127 at 10 uM)” value is given as 12.73%.
In the case of `O=C(NCCCN1CCC(N2CCCCC2)CC1)C1=Cc2cc(Br)ccc2OC1` [MMV019995] it was 11.48%; in that of `CCc1ccc(Nc2cc(C)c3ccc(O)cc3n2)cc1.Cl` [MMV000570], -6.94%; in that of `COc1cc(OC)cc(N2C(=O)N(Cc3ccc(C(C)(C)C)cc3)c3ccccc3S2(=O)=O)c1` [MMV008173], -29.78%.
As to `COc1cccc(NC(=O)Cn2c(C)c(C#N)c3ccccc32)c1` [MMV665826], the “PGI (% of DB1127 at 10 uM)” value is given as -17.93%.
As for `c1ccc(/C2=N/c3ccccc3/N=C(/c3ccccc3)c3ccccc32)cc1` [MMV007113], the “PGI (% of DB1127 at 10 uM)” value was 13.66%.
As for `Cc1ccc(S(=O)(=O)c2c(COC(=O)c3cccc(C)c3)c(-c3ccccc3)nn2C)cc1` [MMV665936], the “PGI (% of DB1127 at 10 uM)” value is -18.54%.
In the case of `COc1ccc(C=C2SC(Nc3ccc(F)cc3)=NC2=O)c(OC)c1` [MMV084434], the “PGI (% of DB1127 at 10 uM)” value is 7.76%.
In the case of `Cc1cccc(Nc2nc(N)c3ccccc3n2)c1.Cl` [MMV019110] it was -9.63%.
Take `COc1ccc(-c2nonc2NC(=O)c2cccc(C)c2)cc1OC` [MMV665890]: the “PGI (% of DB1127 at 10 uM)” value is listed as -8.07%.
With `O=C1CC(O)(C(F)(F)C(F)(F)F)Oc2ccccc21` (stereo not drawn) [MMV000972], the “PGI (% of DB1127 at 10 uM)” value was 141.59%.
In the case of `COc1ccc(Br)cc1C1Nc2ccc3ccccc3c2C2=C1C(=O)CC(c1ccccc1)C2` (stereo not drawn) [MMV020885] it was -45.01%; in that of `N#Cc1nc(Cc2cccc3ccccc23)oc1N1CCN(C(c2ccccc2)c2ccccc2)CC1` [MMV396726], -6.81%.
For `CCOc1ccc(-c2nonc2NC(=O)c2cccc(C)c2)cc1OCC` [MMV665805], the “PGI (% of DB1127 at 10 uM)” value is listed as -25.24%.
`CCOC(=O)c1cnc2ccc(OC)cc2c1Nc1ccc(N2CCN(C)CC2)cc1` [MMV000704]: the “PGI (% of DB1127 at 10 uM)” value was found to be 8.26%.
With `CCOc1ccccc1CNC(=O)C1c2ccccc2C(=O)N(CC(C)C)C1c1cccs1` (stereo not drawn) [MMV000653], the “PGI (% of DB1127 at 10 uM)” value is on record as -120.29%.
For the compound `CCCc1cc(O)c2c3c(c(=O)oc2c1)CN(C)CC3` [MMV665841], the “PGI (% of DB1127 at 10 uM)” value is -34.14%.
Turning to `Oc1ccc(Cl)cc1CNc1nc2ccccc2[nH]1` [MMV665850], the “PGI (% of DB1127 at 10 uM)” value was -85.60%.
In the case of `Cc1ccc(N2C(=O)C3C(C2=O)C2(c4ccccc4)C(=O)C3(c3ccccc3)C(c3ccccc3)=C2c2ccccc2)cc1` (stereo not drawn) [MMV666062] it was -37.70%.
For the compound `Cc1ccc(CN2CCC(C(=O)Nc3ccc(-c4cc5ccccc5[nH]4)cc3)CC2)o1` [MMV666071], the “PGI (% of DB1127 at 10 uM)” value is recorded as -52.95%.
On to `Oc1ccc(-c2nc(-c3ccc4oc5ccc(-c6[nH]c(-c7ccc(O)cc7)nc6-c6ccccc6)cc5c4c3)c(-c3ccccc3)[nH]2)cc1` [MMV000753], for which the “PGI (% of DB1127 at 10 uM)” value is -5.15%.
For `CN(C)c1ccc(N=Cc2ccc(N3CCOCC3)cc2)cc1` [MMV073843], the “PGI (% of DB1127 at 10 uM)” value is reported as -14.14%.
For `COc1ccc(Nc2cc(C)nc(NCc3ccccc3)n2)cc1` [MMV006825], the “PGI (% of DB1127 at 10 uM)” value worked out at 17.48%.
Take `CC1CC(C)CN(C(=O)c2ccc(Cl)cc2Cl)C1` (stereo not drawn) [MMV001344]: the “PGI (% of DB1127 at 10 uM)” value is reported as -22.37%.
Take `CCC(O)c1ccc(Br)cc1NC(=O)c1cccc(Cl)c1` (stereo not drawn) [MMV020654]: the “PGI (% of DB1127 at 10 uM)” value is reported as -1.89%.
As for `COc1ccccc1CNC(=O)CCn1c(=O)[nH]c2ccccc2c1=O` [MMV665916], the “PGI (% of DB1127 at 10 uM)” value was -47.23%.
For the compound `CC1CCN(Cc2ccc(NC(=O)c3cc4ccc5cccnc5c4[nH]3)cc2)CC1` [MMV020549], the “PGI (% of DB1127 at 10 uM)” value is -59.67%.
Turning to `CCOc1c(Br)cc(C2C(C(=O)OC)=CN(C)C=C2C(=O)OC)cc1OC` [MMV006764], the “PGI (% of DB1127 at 10 uM)” value is listed as -0.44%.
For the compound `CCc1ccc(CNCC(O)c2ccccc2)cc1.Cl` (stereo not drawn) [MMV665812], the “PGI (% of DB1127 at 10 uM)” value is reported as -2.45%.
For the compound `CCn1nc(-c2ccc(C(=O)OC)cc2)nc2c(=O)n(C)c(=O)nc1-2` [MMV306025], the “PGI (% of DB1127 at 10 uM)” value is -10.99%.
As to `COc1cccc(O)c1CN1CCC2(CCCN(Cc3ccc(F)cc3)C2)C1` (stereo not drawn) [MMV666061], the “PGI (% of DB1127 at 10 uM)” value is -20.69%.
Consider `O=C1c2ccccc2-c2nnc(-c3ccc(Br)cc3)cc21` [MMV665934], for which the “PGI (% of DB1127 at 10 uM)” value was -7.23%.
In the case of `Cc1ccnc(NC(c2cccc(OCc3ccccc3)c2)c2ccc3cccnc3c2O)c1` (stereo not drawn) [MMV000720] it was -5.36%; in that of `COc1cccc(Cn2c(Oc3ccccc3)nc3c2c(=O)n(C)c(=O)n3C)c1` [MMV396705], -23.91%; in that of `COc1ccc(C2=C(c3ccc(OC)cc3)C3(c4ccccc4)C(=O)C2(c2ccccc2)C2C(=O)N(c4ccc(C)cc4)C(=O)C23)cc1` (stereo not drawn) [MMV666101], -51.33%.
For `COc1ccc2nc(C)cc(Nc3ccc(Cl)cc3)c2c1` [MMV007875], the “PGI (% of DB1127 at 10 uM)” value is -32.27%.
With `Cc1cc(NC(=O)C2c3ccccc3C(=O)N(CC(C)C)C2c2cccs2)no1` (stereo not drawn) [MMV006429], the “PGI (% of DB1127 at 10 uM)” value is recorded as -37.87%.
Turning to `Cn1c(C(=O)c2cccc3ccccc23)nc2ccccc21` [MMV665824], the “PGI (% of DB1127 at 10 uM)” value is listed as -1.12%.
With `Cc1ccc(F)cc1NC(=O)c1cc(Cl)ccc1Nc1ccccc1` [MMV007275], the “PGI (% of DB1127 at 10 uM)” value turned out to be 1.44%.
On to `Cn1c(=O)c2cc(C(=O)NCCCN3CCCCCC3)sc2c2ccccc21` [MMV019313], for which the “PGI (% of DB1127 at 10 uM)” value is -53.66%.
`CCOC(=O)c1cnc2ccc(Cl)cc2c1NCCCN(C)C` [MMV006882]: the “PGI (% of DB1127 at 10 uM)” value is reported as 9.75%.
In the case of `Cc1sc(NC(=O)c2ccco2)c(C(c2cccnc2)N2CCC(Cc3ccccc3)CC2)c1C` (stereo not drawn) [MMV396663] it was -1.97%; in that of `CNCCCNc1ccnc2cc(Cl)ccc12` [MMV020500], -31.62%.
With `COc1cccc(C(=O)Nc2ccc(-c3nc4ccccc4[nH]3)cc2)c1` [MMV019762], the “PGI (% of DB1127 at 10 uM)” value is on record as -25.80%.
Consider `COc1ccc(C=C2SC(=N)N(c3ccccc3OC)C2=O)cc1` [MMV666691], for which the “PGI (% of DB1127 at 10 uM)” value is -41.85%.
Turning to `Cc1sc(NC(=O)c2ccccc2)c(C(c2cccs2)N2CCN(c3ccccc3)CC2)c1C` (stereo not drawn) [MMV396652], the “PGI (% of DB1127 at 10 uM)” value is -26.88%.
On to `Cc1ccc(C(=O)c2oc3ccc4c(C)cc(=O)oc4c3c2C)cc1` [MMV086103], for which the “PGI (% of DB1127 at 10 uM)” value is on record as -6.30%.
`Cc1ccc(N2C3c4ccccc4N(S(=O)(=O)c4ccc(C)cc4)C2c2ccccc2N3S(=O)(=O)c2ccc(C)cc2)cc1` [MMV007160]: the “PGI (% of DB1127 at 10 uM)” value is -42.36%.

Values taken from PMC4788259 (PLoS Neglected Tropical Diseases, 2016).
